{"source": "ChEMBL document CHEMBL3244137", "about": "“Synthesis and antimicrobial activity of azasteroid-type compounds and related systems. Effect of hydrophilic and lipophilic groups on activity” (1977)", "type_in_all_cases": "functional", "key": {"Bacillus subtilis [1]": {"system": "Bacillus subtilis", "experiment": "Growth inhibition of Bacillus subtilis at 5 ug/ml", "conditions": "for inhibition at 5 µg/mL: Bacillus subtilis"}, "Pseudomonas fluorescens [2]": {"system": "Pseudomonas fluorescens", "experiment": "Growth inhibition of Pseudomonas fluorescens at 91 ug/ml"}, "KB [3]": {"system": "KB", "experiment": "Plating efficiency of human KB cells at 25 ug/ml"}, "KB [4]": {"system": "KB", "experiment": "Plating efficiency of human KB cells at 150 ug/ml"}, "Bacillus subtilis [5]": {"system": "Bacillus subtilis", "experiment": "Growth inhibition of Bacillus subtilis at 91 ug/ml"}, "KB [6]": {"system": "KB", "experiment": "Plating efficiency of human KB cells at 12.5 ug/ml"}, "KB [7]": {"system": "KB", "experiment": "Growth inhibition of human KB cells at 150 ug/ml", "conditions": "read-out: GI"}, "KB [8]": {"system": "KB", "experiment": "Growth inhibition of human KB cells at 12.5 ug/ml", "conditions": "read-out: GI"}, "KB [9]": {"system": "KB", "experiment": "Growth inhibition of human KB cells at 25 ug/ml", "conditions": "read-out: GI"}, "Bacillus subtilis [10]": {"system": "Bacillus subtilis", "experiment": "Growth inhibition of Bacillus subtilis at 45 ug/ml"}, "Pseudomonas fluorescens [11]": {"system": "Pseudomonas fluorescens", "experiment": "Growth inhibition of Pseudomonas fluorescens at 45 ug/ml"}, "Pseudomonas fluorescens [12]": {"system": "Pseudomonas fluorescens", "experiment": "Growth inhibition of Pseudomonas fluorescens at 50 ug/ml"}, "Bacillus subtilis [13]": {"system": "Bacillus subtilis", "experiment": "Growth inhibition of Bacillus subtilis at 50 ug/ml"}, "KB [14]": {"system": "KB", "experiment": "Growth inhibition of human KB cells at 50 ug/ml", "conditions": "read-out: GI"}, "KB [15]": {"system": "KB", "experiment": "Plating efficiency of human KB cells at 50 ug/ml"}, "Pseudomonas fluorescens [16]": {"system": "Pseudomonas fluorescens", "experiment": "Growth inhibition of Pseudomonas fluorescens at 90 ug/ml"}, "Pseudomonas fluorescens [17]": {"system": "Pseudomonas fluorescens", "experiment": "Growth inhibition of Pseudomonas fluorescens at 5 ug/ml"}, "Bacillus subtilis [18]": {"system": "Bacillus subtilis", "experiment": "Growth inhibition of Bacillus subtilis at 90 ug/ml"}, "Bacillus subtilis [19]": {"system": "Bacillus subtilis", "experiment": "Growth inhibition of Bacillus subtilis at 10 ug/ml"}, "Bacillus subtilis [20]": {"system": "Bacillus subtilis", "experiment": "Growth inhibition of Bacillus subtilis at 20 ug/ml"}}}
{"smiles": "COc1ccc2c(c1)CCc1sc(N)nc1-2", "values": [{"measurement": "inhibition at 5 µg/mL", "setting": "Bacillus subtilis [1]", "result": 40, "unit": "%"}]}
{"smiles": "COc1ccc2c(c1)CCc1cnoc1-2", "values": [{"measurement": "inhibition at 91 µg/mL", "setting": "Pseudomonas fluorescens [2]", "result": 0, "unit": "%"}, {"measurement": "Activity", "setting": "KB [3]", "result": 67, "unit": "%"}, {"measurement": "Activity", "setting": "KB [4]", "result": 0, "unit": "%"}, {"measurement": "inhibition at 91 µg/mL", "setting": "Bacillus subtilis [5]", "result": 100, "unit": "%"}, {"measurement": "Activity", "setting": "KB [6]", "result": 100, "unit": "%"}, {"measurement": "inhibition of growth at 150 µg/mL", "setting": "KB [7]", "result": 100, "unit": "%"}, {"measurement": "inhibition of growth at 12.5 µg/mL", "setting": "KB [8]", "result": 0, "unit": "%"}, {"measurement": "inhibition of growth at 25 µg/mL", "setting": "KB [9]", "result": 33, "unit": "%"}]}
{"smiles": "COc1ccc2c(c1)CCc1c[nH]nc1-2", "values": [{"measurement": "inhibition at 91 µg/mL", "setting": "Bacillus subtilis [5]", "result": 0, "unit": "%"}]}
{"smiles": "OCCOc1ccc2c(c1)CCc1cn[nH]c1-2", "values": [{"measurement": "inhibition at 91 µg/mL", "setting": "Bacillus subtilis [5]", "result": 0, "unit": "%"}]}
{"smiles": "CN(C)CCOc1ccc2c3c(ccc2c1)C(=O)CCC3", "values": [{"measurement": "inhibition at 91 µg/mL", "setting": "Bacillus subtilis [5]", "result": 100, "unit": "%"}]}
{"smiles": "CN(C)CCOc1ccc2c(c1)CCc1cn[nH]c1-2", "values": [{"measurement": "inhibition at 91 µg/mL", "setting": "Bacillus subtilis [5]", "result": 0, "unit": "%"}]}
{"smiles": "CCCCCCOc1ccc2c(c1)CCc1cn[nH]c1-2", "values": [{"measurement": "inhibition at 45 µg/mL", "setting": "Bacillus subtilis [10]", "result": 100, "unit": "%"}, {"measurement": "inhibition at 45 µg/mL", "setting": "Pseudomonas fluorescens [11]", "result": 0, "unit": "%"}]}
{"smiles": "CCCCCCCCCCCCCCCCOc1ccc2c(c1)CCc1cn[nH]c1-2", "values": [{"measurement": "inhibition at 91 µg/mL", "setting": "Bacillus subtilis [5]", "result": 0, "unit": "%"}]}
{"smiles": "CCCCCCOc1ccc2c(c1)CCc1cnn([C@@H]3O[C@H](COC(C)=O)[C@@H](OC(C)=O)[C@H](OC(C)=O)[C@H]3OC(C)=O)c1-2", "values": [{"measurement": "inhibition at 91 µg/mL", "setting": "Pseudomonas fluorescens [2]", "result": 0, "unit": "%"}, {"measurement": "inhibition at 50 µg/mL", "setting": "Pseudomonas fluorescens [12]", "result": 0, "unit": "%"}, {"measurement": "inhibition at 91 µg/mL", "setting": "Bacillus subtilis [5]", "result": 100, "unit": "%"}, {"measurement": "inhibition at 50 µg/mL", "setting": "Bacillus subtilis [13]", "result": 100, "unit": "%"}]}
{"smiles": "COc1ccc2c(c1)CCc1cnn([C@@H]3O[C@H](COC(C)=O)[C@@H](OC(C)=O)[C@H](OC(C)=O)[C@H]3OC(C)=O)c1-2", "values": [{"measurement": "inhibition at 91 µg/mL", "setting": "Pseudomonas fluorescens [2]", "result": 100, "unit": "%"}, {"measurement": "inhibition of growth at 50 µg/mL", "setting": "KB [14]", "result": 100, "unit": "%"}, {"measurement": "inhibition at 5 µg/mL", "setting": "Bacillus subtilis [1]", "result": 100, "unit": "%"}, {"measurement": "Activity", "setting": "KB [15]", "result": 0, "unit": "%"}, {"measurement": "inhibition at 91 µg/mL", "setting": "Bacillus subtilis [5]", "result": 100, "unit": "%"}]}
{"smiles": "CCCCCCOc1ccc2c(c1)CCc1cnn(CCN(CCCl)CCCl)c1-2", "values": [{"measurement": "inhibition at 5 µg/mL", "setting": "Bacillus subtilis [1]", "result": 100, "unit": "%"}]}
{"smiles": "COc1ccc2c(c1)CCc1cnn(CCSCCCl)c1-2", "values": [{"measurement": "inhibition at 45 µg/mL", "setting": "Bacillus subtilis [10]", "result": 100, "unit": "%"}]}
{"smiles": "CCCCCCOc1ccc2c(c1)CCc1cnoc1-2", "values": [{"measurement": "inhibition at 45 µg/mL", "setting": "Bacillus subtilis [10]", "result": 0, "unit": "%"}, {"measurement": "inhibition at 45 µg/mL", "setting": "Pseudomonas fluorescens [11]", "result": 0, "unit": "%"}, {"measurement": "inhibition at 91 µg/mL", "setting": "Bacillus subtilis [5]", "result": 100, "unit": "%"}]}
{"smiles": "COc1ccc2c(c1)CC[C@]1(C)C(=O)NN=C21", "values": [{"measurement": "inhibition at 91 µg/mL", "setting": "Bacillus subtilis [5]", "result": 0, "unit": "%"}]}
{"smiles": "CCCCCCOc1ccc2c(c1)CC[C@]1(C)C(=O)NN=C21", "values": [{"measurement": "inhibition at 91 µg/mL", "setting": "Pseudomonas fluorescens [2]", "result": 0, "unit": "%"}, {"measurement": "inhibition at 91 µg/mL", "setting": "Bacillus subtilis [5]", "result": 0, "unit": "%"}]}
{"smiles": "CCCCCCOc1ccc2c(c1)CCc1sc(N)nc1-2", "values": [{"measurement": "inhibition (INH)", "setting": "Bacillus subtilis [1]", "result": 100, "unit": "%"}, {"measurement": "Activity", "setting": "KB [3]", "result": 0, "unit": "%"}, {"measurement": "inhibition of growth at 25 µg/mL", "setting": "KB [9]", "result": 100, "unit": "%"}]}
{"smiles": "COc1ccc2c(c1)CCc1sc(N)nc1-2.Cl", "values": [{"measurement": "inhibition at 90 µg/mL", "setting": "Pseudomonas fluorescens [16]", "result": 25, "unit": "%"}, {"measurement": "inhibition (INH)", "setting": "Bacillus subtilis [1]", "result": 47, "unit": "%"}, {"measurement": "inhibition at 5 µg/mL", "setting": "Pseudomonas fluorescens [17]", "result": 0, "unit": "%"}, {"measurement": "inhibition at 90 µg/mL", "setting": "Bacillus subtilis [18]", "result": 100, "unit": "%"}]}
{"smiles": "CCCCCCOc1ccc2c(c1)CCc1sc(N)nc1-2.Cl", "values": [{"measurement": "inhibition at 90 µg/mL", "setting": "Pseudomonas fluorescens [16]", "result": 25, "unit": "%"}, {"measurement": "inhibition (INH)", "setting": "Bacillus subtilis [1]", "result": 12, "unit": "%"}, {"measurement": "inhibition at 5 µg/mL", "setting": "Pseudomonas fluorescens [17]", "result": 11, "unit": "%"}, {"measurement": "inhibition at 90 µg/mL", "setting": "Bacillus subtilis [18]", "result": 60, "unit": "%"}]}
{"smiles": "COc1ccc2c3c(ccc2c1)-c1[nH]ncc1CC3", "values": [{"measurement": "inhibition at 90 µg/mL", "setting": "Pseudomonas fluorescens [16]", "result": 48, "unit": "%"}, {"measurement": "inhibition at 91 µg/mL", "setting": "Bacillus subtilis [5]", "result": 7.8, "unit": "%"}]}
{"smiles": "CN(C)CCOc1ccc2c3c(ccc2c1)-c1[nH]ncc1CC3", "values": [{"measurement": "inhibition at 91 µg/mL", "setting": "Pseudomonas fluorescens [2]", "result": 0, "unit": "%"}, {"measurement": "inhibition at 91 µg/mL", "setting": "Bacillus subtilis [5]", "result": 100, "unit": "%"}]}
{"smiles": "CCCCCCOc1ccc2c3c(ccc2c1)-c1[nH]ncc1CC3", "values": [{"measurement": "inhibition at 91 µg/mL", "setting": "Bacillus subtilis [5]", "result": 100, "unit": "%"}]}
{"smiles": "c1cnc2c(c1)-c1[nH]ncc1CC2", "values": [{"measurement": "inhibition at 90 µg/mL", "setting": "Pseudomonas fluorescens [16]", "result": 0, "unit": "%"}, {"measurement": "inhibition at 10 µg/mL", "setting": "Bacillus subtilis [19]", "result": 100, "unit": "%"}]}
{"smiles": "C[n+]1cccc2c1CCc1cn[nH]c1-2", "values": [{"measurement": "inhibition at 91 µg/mL", "setting": "Bacillus subtilis [5]", "result": 50, "unit": "%"}]}
{"smiles": "COc1ccc2c(c1)CCc1cnn(CCN(CCCl)CCCl)c1-2", "values": [{"measurement": "inhibition at 20 µg/mL", "setting": "Bacillus subtilis [20]", "result": 100, "unit": "%"}]}
